Patent US10010547B2 (CASCADIAN THERAPEUTICS, INC., priority 2014, dated 2018)
Where a name gives a salt, the structure may show the parent alone. Read-outs that look alike come from different tables or passages of the source.

Tests used:
Chk-1 kinase = Chk-1 kinase (Homo sapiens (Human), UniProt O14757); experiment: Chk-1 Kinase Inhibiting Activity (33P-ATP filter assay, CHKtide substrate); assay type: biochemical; settings: against Chk-1 kinase; read-out: IC50
Outline: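 Full-length N-terminal GST-tagged human Chk-1 from insect cells, 0.5 nM final, with 20 μM peptide substrate and 33P-ATP in HEPES pH 7.5 buffer with 1% DMSO. Reaction ran 120 minutes at room temperature; incorporated radioactivity captured on P81 filters and counted for IC50.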

MIA PaCa-2 cells = experiment: Gemcitabine Combination Cell Assay (Cell Titer Glo); assay type: cell-based; settings: for IC50: Homo sapiens; for 10xLS: approximate concentration of Chk1 inhibitor that results in a 10-fold reduction in the IC50 of gemcitabine alone; for 2xLS: approximate concentration of Chk1 inhibitor that results in a two-fold reduction in the IC50 of gemcitabine alone
Outline: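 MIA PaCa-2 cells were treated 72 h with half-log dilutions of Chk1 inhibitor (top 3000 nM) and gemcitabine (top 100 nM), alone and in full matrix; viability by CellTiter-Glo luminescence. IC50s from four-parameter fit; Chk1 inhibitor concentrations giving two- and ten-fold lowering of gemcitabine IC50 were estimated.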

[1] = Chk1 inhibitor alone, MIA PaCa-2 cells, 72 h, read-out: Chk1 IC50

Chain of Chk-1 kinase (O14757 whole entry): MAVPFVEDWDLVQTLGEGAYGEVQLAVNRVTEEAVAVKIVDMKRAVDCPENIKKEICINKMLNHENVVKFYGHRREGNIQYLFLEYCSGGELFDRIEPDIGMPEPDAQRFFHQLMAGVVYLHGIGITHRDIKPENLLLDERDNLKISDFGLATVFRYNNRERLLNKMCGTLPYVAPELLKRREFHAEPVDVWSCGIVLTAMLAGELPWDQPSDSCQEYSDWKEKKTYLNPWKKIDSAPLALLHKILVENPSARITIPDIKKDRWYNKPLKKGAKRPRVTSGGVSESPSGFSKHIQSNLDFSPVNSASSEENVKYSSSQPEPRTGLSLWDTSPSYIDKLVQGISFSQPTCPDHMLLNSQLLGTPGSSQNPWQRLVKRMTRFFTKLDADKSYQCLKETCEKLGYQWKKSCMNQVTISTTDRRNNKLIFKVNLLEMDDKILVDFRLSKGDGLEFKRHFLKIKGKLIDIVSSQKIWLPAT

Row | Structure (SMILES) | IC50 (Chk-1 kinase) [nM] | IC50 (MIA PaCa-2 cells; [1]) [nM] | 10xLS (MIA PaCa-2 cells; MIA PaCa-2 cells, 72 h) [nM] | 2xLS (MIA PaCa-2 cells; MIA PaCa-2 cells, 72 h) [nM] | IC50 (MIA PaCa-2 cells; MIA PaCa-2, 72 h, read-out: Chk1 IC50 (nM)) [nM]
1 | COc1cc(C2CN(C)C2)ccc1-c1cc(Nc2cnc(C#N)cn2)n[nH]1 [Example 65, 5-[[5-[2-methoxy-4-(1-methylazetidin-3-yl)phenyl]-1H-pyrazol-3-yl]amino]pyrazine-2-carbonitrile] | 0.022 | 144 | <100 | 3 | –
2 | COc1cc(C2(F)CN(C)C2)ccc1-c1cc(Nc2cnc(C#N)cn2)n[nH]1 [Example 66, 5-[[5-[4-(3-fluoro-1-methyl-azetidin-3-yl)-2-methoxy-phenyl]-1H-pyrazol-3-yl]amino]pyrazine-2-carbonitrile] | 0.14 | 111 | 30 | <3 | –
3 | COc1cc(C2CCN(C)CC2)c(Cl)cc1-c1cc(Nc2cnc(C#N)cn2)n[nH]1 [Example 67, 5-[[5-[5-chloro-2-methoxy-4-(1-methyl-4-piperidyl)phenyl]-1H-pyrazol-3-yl]amino]pyrazine-2-carbonitrile] | 1.8 | 1320 | 1000 | 100 | –
4 | COc1cc(C2CCNCC2)c(Cl)cc1-c1cc(Nc2cnc(C#N)cn2)n[nH]1 [Example 68, 5-[[5-[5-chloro-2-methoxy-4-(4-piperidyl)phenyl]-1H-pyrazol-3-yl]amino]pyrazine-2-carbonitrile] | 2.9 | 1380 | 1000 | 100 | –
5 | COc1c(-c2cc(Nc3cnc(C#N)cn3)n[nH]2)ccc(C2CCN(C)CC2)c1Cl [Example 69, 5-[[5-[3-chloro-2-methoxy-4-(1-methyl-4-piperidyl)phenyl]-1H-pyrazol-3-yl]amino]pyrazine-2-carbonitrile] | 7.9 | 2200 | 1000 | 100 | –
6 | COc1c(-c2cc(Nc3cnc(C#N)cn3)n[nH]2)ccc(C2CCNCC2)c1Cl [Example 70, 5-[[5-[3-chloro-2-methoxy-4-(4-piperidyl)phenyl]-1H-pyrazol-3-yl]amino]pyrazine-2-carbonitrile] | 10 | 2620 | 3000 | 300 | –
7 | COC(=O)c1cnc(Nc2cc(-c3ccc(C4CCNCC4)cc3OC)[nH]n2)cn1 [Example 71, methyl 5-[[5-[2-methoxy-4-(4-piperidyl)phenyl]-1H-pyrazol-3-yl]amino]pyrazine-2-carboxylate] | > 100 | > 3000 | >3000 | >3000 | –
8 | COc1cc(CNC2CCOC2)ccc1-c1cc(Nc2cnc(C#N)cn2)n[nH]1 (centres unmarked) [Example 72, 5-[[5-[2-methoxy-4-[(tetrahydrofuran-3-ylamino)methyl]phenyl]-1H-pyrazol-3-yl]amino]pyrazine-2-carbonitrile] | 0.16 | 173 | 100 | 10 | –
9 | COc1cc(CN(C)C2CCOC2)ccc1-c1cc(Nc2cnc(C#N)cn2)n[nH]1 (centres unmarked) [Example 73, 5-[[5-[2-methoxy-4-[[methyl(tetra hydrofuran-3-yl)amino]methyl]phenyl]-1H-pyrazol-3-yl]amino]pyrazine-2-carbonitrile] | 0.28 | 354 | 300 | 10 | –
10 | COc1cc(NCC2CCOCC2)ccc1-c1cc(Nc2cnc(C#N)cn2)n[nH]1 [Example 74, 5-[[5-[2-methoxy-4-(tetrahydropyran-4-ylmethylamino)phenyl]-1H-pyrazol-3-yl]amino]pyrazine-2-carbonitrile] | 0.35 | 282 | 100 | 3 | –
11 | COc1cc(OCC2CCOCC2)ccc1-c1cc(Nc2cnc(C#N)cn2)n[nH]1 [Example 75, 5-[[5-[2-methoxy-4-(tetrahydropyran-4-ylmethoxy)phenyl]-1H-pyrazol-3-yl]amino]pyrazine-2-carbonitrile] | 0.55 | > 3000 | >3000 | >3000 | –
12 | COc1cc(C2(F)CCNCC2)ccc1-c1cc(Nc2cnc(C#N)cn2)n[nH]1 [Example 76, 5-[[5-[4-(4-fluoro-4-piperidyl)-2-methoxy-phenyl]-1H-pyrazol-3-yl]amino]pyrazine-2-carbonitrile] | 0.11 | 482 | 300 | 10 | –
13 | COc1cc(C2(F)CNC2)ccc1-c1cc(Nc2cnc(C#N)cn2)n[nH]1 [Example 77, 5-[[5-[4-(3-fluoroazetidin-3-yl)-2-methoxy-phenyl]-1H-pyrazol-3-yl]amino]pyrazine-2-carbonitrile] | 0.14 | 164 | <100 | <3 | –
14 | COc1cc(O[C@@H]2CCN(C)C2)ccc1-c1cc(Nc2cnc(C#N)cn2)n[nH]1 [Example 78, 5-[[5-[2-methoxy-4-[(3R)-1-methylpyrrolidin-3-yl]oxy-phenyl]-1H-pyrazol-3-yl]amino]pyrazine-2-carbonitrile] | 0.69 | 136 | 100 | 10 | –
15 | COc1cc(N2CCOCC2)ccc1-c1cc(Nc2cnc(C#N)cn2)n[nH]1 [Example 79, 5-[[5-(2-methoxy-4-morpholino-phenyl)-1H-pyrazol-3-yl]amino]pyrazine-2-carbonitrile] | 0.4 | 478 | 100 | 3 | –
16 | CCN1CCN(c2ccc(-c3cc(Nc4cnc(C#N)cn4)n[nH]3)c(OC)c2)CC1 [Example 80, 5-[[5-[4-(4-ethylpiperazin-1-yl)-2-methoxy-phenyl]-1H-pyrazol-3-yl]amino]pyrazine-2-carbonitrile] | 0.19 | 36 | 10 | <3 | –
17 | COc1cc(N2CCN(C(C)C)CC2)ccc1-c1cc(Nc2cnc(C#N)cn2)n[nH]1 [Example 81, 5-[[5-[4-(4-isopropylpiperazin-1-yl)-2-methoxy-phenyl]-1H-pyrazol-3-yl]amino]pyrazine-2-carbonitrile] | 0.15 | 36 | <30 | <3 | –
18 | COc1cc(N2CCN[C@H](C)C2)ccc1-c1cc(Nc2cnc(C#N)cn2)n[nH]1 [Example 82, 5-[[5-[2-methoxy-4-[(3R)-3-methylpiperazin-1-yl]phenyl]-1H-pyrazol-3-yl]amino]pyrazine-2-carbonitrile] | 0.016 | 74 | <30 | <3 | –
19 | CCN1CCCN(c2ccc(-c3cc(Nc4cnc(C#N)cn4)n[nH]3)c(OC)c2)CC1 [Example 83, 5-[[5-[4-(4-ethyl-1,4-diazepan-1-yl)-2-methoxy-phenyl]-1H-pyrazol-3-yl]amino]pyrazine-2-carbonitrile] | 0.11 | 107 | <100 | <3 | –
20 | COc1cc(N2CCCN(C(C)C)CC2)ccc1-c1cc(Nc2cnc(C#N)cn2)n[nH]1 [Example 84, 5-[[5-[4-(4-isopropyl-1,4-diazepan-1-yl)-2-methoxy-phenyl]-1H-pyrazol-3-yl]amino]pyrazine-2-carbonitrile] | 0.14 | 62 | <100 | <3 | –
21 | CCN1CCC(F)(c2ccc(-c3cc(Nc4cnc(C#N)cn4)n[nH]3)c(OC)c2)CC1 [Example 85, 5-[[5-[4-(1-ethyl-4-fluoro-4-piperidyl)-2-methoxy-phenyl]-1H-pyrazol-3-yl]amino]pyrazine-2-carbonitrile] | 0.25 | 138 | 100 | 3 | –
22 | COc1cc(C2(F)CCN(C(C)C)CC2)ccc1-c1cc(Nc2cnc(C#N)cn2)n[nH]1 [Example 86, 5-[[5-[4-(4-fluoro-1-isopropyl-4-piperidyl)-2-methoxy-phenyl]-1H-pyrazol-3-yl]amino]pyrazine-2-carbonitrile] | 0.12 | 239 | <100 | <3 | –
23 | CCN1CCC(c2ccc(-c3cc(Nc4cnc(C#N)cn4)n[nH]3)c(OC)c2)C(F)C1 (centres unmarked) [Example 87, 5-[[5-[4-(1-ethyl-3-fluoro-4-piperidyl)-2-methoxy-phenyl]-1H-pyrazol-3-yl]amino]pyrazine-2-carbonitrile hydrochloride] | 0.059 | – | 300 | 10 | 540
24 | COc1cc(C2CCN(C(C)C)CC2F)ccc1-c1cc(Nc2cnc(C#N)cn2)n[nH]1 (centres unmarked) [Example 88, 5-[[5-[4-(3-fluoro-1-isopropyl-4-piperidyl)-2-methoxy-phenyl]-1H-pyrazol-3-yl]amino]pyrazine-2-carbonitrile] | 0.079 | 424 | 300 | 10 | –
25 | COCCN1CCC(c2ccc(-c3cc(Nc4cnc(C#N)cn4)n[nH]3)c(OC)c2)CC1 [Example 89, 5-[[5-[2-methoxy-4-[1-(2-methoxyethyl)-4-piperidyl]phenyl]-1H-pyrazol-3-yl]amino]pyrazine-2-carbonitrile] | 0.051 | 193 | 100 | <3 | –
26 | CCNCc1ccc(-c2cc(Nc3cnc(C#N)cn3)n[nH]2)c(OC)c1 [Example 90, 5-[[5-[4-(ethylaminomethyl)-2-methoxy-phenyl]-1H-pyrazol-3-yl]amino]pyrazine-2-carbonitrile] | 0.058 | 390 | <300 | 10 | –
